Assays:
IL-6 = experiment: LPS-induced IL-6 secretion in primary human monocyte-derived macrophages (ELISA); assay type: cell-based; details: for IL-6 Measurements Mean: LPS 0.15 ng/mL, baseline subtracted; for LPS-induced IL-6 secretion: macrophages, 0.15 ng/mL LPS
Description: Unpurified buffy coats (Research Blood Components) were carefully poured into 50 mL centrifuge tubes and diluted with room temperature Dulbecco's Phosphate Buffered Saline (dPBS) with Calcium and Magnesium (Gibco). Diluted buffy coats were further divided into four total 50 mL centrifuge tubes at 20 mL per tube. Lymphocyte Separation Medium (Corning) was carefully pipetted to the bottom of each centrifuge tube. Mixtures were centrifuged at 850× g for 32 minutes at 20° C. with 0 deceleration and acceleration.
The PBMC layer was separated from other components after centrifugation and added to new 50 mL centrifuge tube containing 25 mL dPBS. Total volume was brought up to 50 mL with dPBS and centrifuged at 600×g for 10 minutes at 20° C. with acceleration of 9, deceleration of 5. Supernatant was carefully removed from cell pellets. The cell pellets were resuspended using 10 mL dPBS. Total volume was then brought up to 50 mL using dPBS and centrifuged at 450×g for 5 min at 20° C. with acceleration of 9, deceleration of 9. The supernatant removal and cell pellet resuspension was repeated again.
The supernatant was then carefully removed from cell pellets. Cell pellets were resuspended in 10 mL dPBS without calcium or magnesium and filtered through a 70 uM cell strainer. The total PBMC number was determined using a Cellometer K2 automated cell counter. A total of 5E6 cells were saved for flow cytometric analysis. Remaining cells were centrifuged at 490×g for 5 minutes at 20° C. with acceleration of 9, deceleration of 9.
CD14+ cells were selected using EasySep™ Human CD14 Positive Selection Kit II ([…] Technologies). Cells were resuspended in cold EasySep™ Buffer ([…] Technologies) at 1×10^8 cells/mL. A total of 100 uL/mL EasySep™ Human CD14 Positive Selection Cocktail II was added to the cell suspension, mixed, and incubated at room temperature for 10 minutes. A total of 100 uL/mL RapidSpheres were added to the mixture and incubated at room temperature for 3 minutes after mixing, then RoboSep buffer was added to bring up the total volume to 10 mL. The mixture in a 15 mL tube was placed in magnet and incubated at room temperature for 3 minutes. Supernatant was discarded and 10 mL fresh EasySep™ buffer was added to 15 mL tube. The addition of RoboSep buffer, mixing, and discarding of supernatant was repeated two more times.
Negative and positive fractions were centrifuged at 490×g for 5 minutes at 20° C. with acceleration of 9, deceleration of 9, and resuspended in DMEM (Gibco) and 10% Heat Inactivated Fetal Bovine Serum (Atlanta Bio) and Penicillin/Streptomycin. Cells were counted and centrifuged again at 490× g for 5 minutes at 20° C. with acceleration of 9, deceleration of 9. After centrifugation, cell were resuspended in DMEM (Gibco) and 10% Heat Inactivated Fetal Bovine Serum (Atlanta Bio) and Penicillin/Streptomycin containing 500 U/mL […] and plated at 1-2×10^6 cells/mL on 10 cm tissue culture plates. Cells were kept in 37° C., 5% CO2 in between feedings/harvest.
Cells were fed every 3-4 days by removing media and unattached cells, centrifuging at 490× g for 5 minutes at 20° C. with acceleration of 9, deceleration of 9, and resuspending in fresh DMEM (Gibco) and 10% Heat Inactivated Fetal Bovine Serum (Atlanta Bio) and Penicillin/Streptomycin containing GM-CSF. Resuspended cells were seeded back onto 10 cm tissue culture plates and incubated at 37° C., 5% CO2. Differentiated macrophages were used for subsequent experiments.
Primary human PMBC derived macrophages were seeded on day 0 at 3.0E4 cells per well in 96-well microplates (ThermoFisher) in Dulbecco's Modified Eagle Medium (DMEM) (Gibco) supplemented with penicillin-streptomycin (Hyclone) and 10% heat inactivated fetal bovine serum (HI-FBS) (Atlanta Bio) and incubated overnight at 37° C., 5% CO2. On day 1, cells were washed once with 150 uL per well DPBS (Gibco) and treated with 75 uL of: • a. […]

CCL18 = experiment: IL-4 induced CCL18 secretion in primary human monocyte-derived macrophages (ELISA); assay type: cell-based; details: for Donor 1 CCL18 Measurements Mean / Donor 2 CCL18 Measurements Mean: relative to vehicle control; for CCL18 Measurements: Mean (fold change relative to vehicle control): Donor 3, IL-4 induced; for IL-4 induced CCL18 secretion (fold change relative to vehicle control): macrophages
Description: Lymphocytes were purified from unpurified buffy coats (Research Blood Components) using Lymphocyte Separation Medium (Corning). After centrifugation, the PBMC layer was extracted and rinsed several times using Dulbecco's phosphate-buffered saline (DPBS; Gibco). After straining PBMCs through a 70 uM cell strainer, cells were resuspended and counted using a Cellometer K2 automated cell counter.
CD14+ cells were selected using EasySep™ Human CD14 Positive Selection Kit II ([…] Technologies) according to manufacturer-supplied protocols. Following isolation CD14+ cells were seeded into 10 cm tissue culture plates and differentiated into macrophages using M-CSF (Peprotech).
On day 0, primary human PBMC derived macrophages were seeded in Dulbecco's Modified Eagle Medium (DMEM) (Gibco) supplemented with penicillin-streptomycin (Hyclone) and 10% heat inactivated fetal bovine serum (HI-FBS) (Atlanta Bio) into 96-well microplates (ThermoFisher) and incubated overnight at 37° C., 5% CO2. On day 1, cells were washed once with DPBS and then treated with: • a. Amino acid free DMEM (US Biologicals) containing a defined custom amino acid concentration based on the mean physiological concentrations in blood based on values published in the Human Metabolome Database (HMDB), with 6 mM glucose, 1 mM sodium pyruvate, 10 mM HEPES, penicillin-streptomycin; or • b. The same medium described above with one amino acid or amino acid combination at various concentrations
On day 2, cells were treated with the same mediums described above supplemented with recombinant human interleukin-4 (IL-4; Peprotech). Control wells were treated with tofacitinib (Tocris) and IL-4, PBS with IL-4, or phosphate buffered saline (PBS) alone.
On day 3, the supernatant was collected and immediately frozen in −80° C. freezer. Cells were washed once with DPBS and viability was assessed using the WST-8 Cell Proliferation Cytotoxicity Assay (Dojindo) according to manufacturer-supplied protocol. Following the assay, cells were washed twice with PBS and fixed with 4% paraformaldehyde. Protein levels in supernatant samples were analyzed by ELISA for CCL18 using commercially available kits (R&D Systems) according to manufacturer-supplied protocols.

Structure (SMILES): CC(=O)N[C@@H](CS)C(=O)O [NAC, N-acetylcysteine]
- IL-6 Measurements Mean (IL-6; Donor 1, Conc. 0 X (baseline)): 0
- IL-6 Measurements Mean (IL-6; Donor 1, Conc. 5 X): 308.1772
- IL-6 Measurements Mean (IL-6; Donor 1, Conc. 10 X): −121.142
- IL-6 Measurements Mean (IL-6; Donor 1, Conc. 20 X): −553.802
- IL-6 Measurements Mean (IL-6; Donor 1, Conc. 40 X): −914.194
- IL-6 Measurements Mean (IL-6; Donor 2, Conc. 0 X (baseline)): −2.4E−15
- IL-6 Measurements Mean (IL-6; Donor 2, Conc. 5 X): −0.7946
- IL-6 Measurements Mean (IL-6; Donor 2, Conc. 10 X): −9.751
- IL-6 Measurements Mean (IL-6; Donor 2, Conc. 20 X): −24.9999
- IL-6 Measurements Mean (IL-6; Donor 2, Conc. 40 X): −33.7585
- IL-6 Measurements Mean (IL-6; Donor 3, Conc. 0 X (baseline)): −9.5E−15
- IL-6 Measurements Mean (IL-6; Donor 3, Conc. 5 X): −70.3269
- IL-6 Measurements Mean (IL-6; Donor 3, Conc. 10 X): −103.586
- IL-6 Measurements Mean (IL-6; Donor 3, Conc. 20 X): −122.656
- IL-6 Measurements Mean (IL-6; Donor 3, Conc. 40 X): −140.851
- LPS-induced IL-6 secretion (IL-6; Donor 1): significantly reduced
- LPS-induced IL-6 secretion (IL-6; Donor 2): significantly reduced
- LPS-induced IL-6 secretion (IL-6; Donor 3): significantly reduced
- Donor 1 CCL18 Measurements Mean (CCL18; Donor 1, Conc. 4 X): 1.831 fold change
- Donor 1 CCL18 Measurements Mean (CCL18; Donor 1, Conc. 10 X): 1.979 fold change
- Donor 1 CCL18 Measurements Mean (CCL18; Donor 1, Conc. 20 X): 2.206 fold change
- Donor 1 CCL18 Measurements Mean (CCL18; Donor 1, Conc. 40 X): 2.464 fold change
- Donor 2 CCL18 Measurements Mean (CCL18; Donor 2, Conc. 5 X): 1.326 fold change
- Donor 2 CCL18 Measurements Mean (CCL18; Donor 2, Conc. 10 X): 1.293 fold change
- Donor 2 CCL18 Measurements Mean (CCL18; Donor 2, Conc. 20 X): 1.169 fold change
- Donor 2 CCL18 Measurements Mean (CCL18; Donor 2, Conc. 40 X): 1.517 fold change
- CCL18 Measurements: Mean (fold change relative to vehicle control) (CCL18; Conc. 5 X): 1.324 fold change
- CCL18 Measurements: Mean (fold change relative to vehicle control) (CCL18; Conc. 10 X): 1.67 fold change
- CCL18 Measurements: Mean (fold change relative to vehicle control) (CCL18; Conc. 20 X): 1.812 fold change
- CCL18 Measurements: Mean (fold change relative to vehicle control) (CCL18; Conc. 40 X): 1.887 fold change
- IL-4 induced CCL18 secretion (fold change relative to vehicle control) (CCL18; Donor 1): significantly increased
- IL-4 induced CCL18 secretion (fold change relative to vehicle control) (CCL18; Donor 2): significantly increased

Structure (SMILES): CC(C)[C@H](N)C(=O)O [Valine, L-Valine]
- IL-6 Measurements Mean (IL-6; Donor 1, Conc. 234 μM (baseline)): 0
- IL-6 Measurements Mean (IL-6; Donor 1, Conc. 4684 μM): −85.9843
- IL-6 Measurements Mean (IL-6; Donor 1, Conc. 11710 μM): −97.25
- IL-6 Measurements Mean (IL-6; Donor 1, Conc. 23420 μM): −106.268
- IL-6 Measurements Mean (IL-6; Donor 2, Conc. 234 μM (baseline)): −4.7E−15
- IL-6 Measurements Mean (IL-6; Donor 2, Conc. 4684 μM): −4.528
- IL-6 Measurements Mean (IL-6; Donor 2, Conc. 11710 μM): −1.196
- IL-6 Measurements Mean (IL-6; Donor 2, Conc. 23420 μM): 4.396
- IL-6 Measurements Mean (IL-6; Donor 3, Conc. 234 μM (baseline)): 4.26E−14
- IL-6 Measurements Mean (IL-6; Donor 3, Conc. 4684 μM): −30.0609
- IL-6 Measurements Mean (IL-6; Donor 3, Conc. 11710 μM): −43.8022
- IL-6 Measurements Mean (IL-6; Donor 3, Conc. 23420 μM): −29.2004
- Donor 1 CCL18 Measurements Mean (CCL18; Donor 1, Conc. 234 μM): 1.109 fold change
- Donor 1 CCL18 Measurements Mean (CCL18; Donor 1, Conc. 4684 μM): 1.264 fold change
- Donor 1 CCL18 Measurements Mean (CCL18; Donor 1, Conc. 11710 μM): 1.442 fold change
- Donor 1 CCL18 Measurements Mean (CCL18; Donor 1, Conc. 23420 μM): 0.9491 fold change
- Donor 2 CCL18 Measurements Mean (CCL18; Donor 2, Conc. 234 μM): 1.255 fold change
- Donor 2 CCL18 Measurements Mean (CCL18; Donor 2, Conc. 4684 μM): 1.545 fold change
- Donor 2 CCL18 Measurements Mean (CCL18; Donor 2, Conc. 11710 μM): 1.998 fold change
- Donor 2 CCL18 Measurements Mean (CCL18; Donor 2, Conc. 23420 μM): 2.269 fold change
- CCL18 Measurements: Mean (fold change relative to vehicle control) (CCL18; Conc. 234 μM): 0.7896 fold change
- CCL18 Measurements: Mean (fold change relative to vehicle control) (CCL18; Conc. 4684 μM): 0.9781 fold change
- CCL18 Measurements: Mean (fold change relative to vehicle control) (CCL18; Conc. 11710 μM): 0.9976 fold change
- CCL18 Measurements: Mean (fold change relative to vehicle control) (CCL18; Conc. 23420 μM): 1.082 fold change
- IL-4 induced CCL18 secretion (fold change relative to vehicle control) (CCL18; Donor 2): significantly increased
